Active and inactive are the calls of the source. No cut-off for these calls is given here.
What was measured:
Bacillus subtilis = assay: Antimicrobial activity against Bacillus subtilis at 5 ug/disk; format: functional, organism-based
Staphylococcus aureus = assay: Antimicrobial activity against Staphylococcus aureus at 50 ug/disk; format: functional, organism-based

## C/C=C(\C)c1cc(OC)c(C)c2c1Oc1c(C=O)c(O)cc(/C(C)=C/C(=O)O)c1C(=O)O2
Bacillus subtilis
  Activity: Active
Staphylococcus aureus
  Activity: Active

## C/C=C(\C)c1cc(OC)c(C)c2c1Oc1c(CO)c(O)cc(/C(C)=C/C(=O)O)c1C(=O)O2
Bacillus subtilis
  Activity: Active
Staphylococcus aureus
  Activity: Active

Source: ChEMBL document CHEMBL1158939, “Auranticins A and B: two new depsidones from a mangrove isolate of the fungus Preussia aurantiaca” (J Nat Prod, 1991)
